According to US6562850B1, “Methods of synthesizing sultams and anti-viral compositions” (The University of Tennessee Research Corporation, priority 1998, dated 2003):

Experiments:
HIV-1 = test: anti-HIV-1 activity, National Cancer Institute (Weislow) protocol; format: cell-based; conditions: for IC50: IC50 beside EC50 and TI50 (not further defined in the patent); for Act.: activity class as per the NCI protocol
[1] = Human immunodeficiency virus 1, NCI Weislow protocol

Compound	IC50 (HIV-1; [1]) [µM]	Act. (HIV-1)	melting point [°C]	IC50 (HIV-1; NCI Weislow protocol) [µM]	TI50 (HIV-1; NCI Weislow protocol, therapeutic index column)	EC50 (HIV-1; anti-HIV-1 activity, NCI Weislow protocol) [µM]
CN1[C@@H](c2ccc(O)cc2)c2ccccc2S1(=O)=O [Compound 21, (+)-4-[(3S)-2-Methyl-1,1-dioxo-2,3-dihydrobenzo[d]isothiazol-3-yl]phenol]	> 200	I	178 to 180	–	–	–
CN1[C@H](c2ccc(O)cc2)c2ccccc2S1(=O)=O [Compound 22, (−)-4-[(3R)-2-Methyl-1,1-dioxo-2,3-dihydrobenzo-[d]-isothiazol-3-yl]phenol]	> 200	I	178 to 179	–	–	–
(R,S)-2,5-Dimethyl-3-phenyl-2,3-dihydrobenzo[d]isothiazole 1,1-dioxide [Compound 47]	–	–	–	156	5.03	31
(R,S)-4-(2-Methyl-1,1-dioxo-2,3-dihydrobenzo[d]isothiazol-3-yl)phenol [Compound 20]	–	I	–	> 200	–	–
